These results are taken from patent US20050233413A1, “Neuroprotective polypeptides and methods of use” (priority 2002, published 2005).

Where two headings read alike, the source gives them in different places. Where no end group is shown, it is not given here. [ ]: non-standard residue; d: D form. pS = N[C@@H](COP(=O)(O)O)C(=O)O

Holding throughout (format): cell-based
The test system of series [1] is F11 cells transfected with V642I-APP cDNA. In words: F11 cell death by V642I-APP transfection (Trypan blue exclusion). The settings on record: for cytotoxicity by V642I-APP in the presence of peptide (% dead cells of total cells): each peptide 10 μM, V642I-APP alone 53.7±1.2%, without transfection 9.0±1.4; for % dead cells of total cells: 72 hr after transfection. The text has this:
(§1) In one assay, transfection with V642I-APP causes cell death in F11 neuronal hybrid cells. In the other, treatment with Aβ peptides causes cell death in primary cultured cortical neurons.
(§2) F11 cells, the hybrid of a rat embryonic-day-13 primary cultured primary neuron and a mouse neuroblastoma cell, are one of the best models for primary cultured neurons as they carry representative characteristics of primary neurons, such as generation of action potentials without differentiation by NGF [22]. They have been used in various studies of is neuronal functions. Using these cells, the underlying mechanisms for cytotoxicity by V642I-APP have well been analyzed. Cytotoxicity by V642 mutants of APP has also been confirmed in multiple different systems. F11 cells were grown in Ham's F-12 (GibcoBRL, Gaithersburg, Md.) plus 18% fetal bovine serum (FBS; Hyclone, Logan, Utah) and antibiotics, as described previously. F11 cells (7×10^4 cell/well in a 6-well plate cultured in Ham's F-12 plus 18% FBS for 12-16 hr) were transfected with plasmids encoding FAD genes by lipofection [FAD cDNA 2 μg, LipofectAMINE 4 μl, PLUS reagent 8 μl (GibcoBRL)] in the absence of serum for 3 hr, and were incubated with Ham's F-12 plus 18% FBS for 2 hr. Then, culture media were changed to Ham's F-12 plus 10% FBS with or without HN peptides, and cells were cultured for an additional 67 hr. Seventy-two hr after transfection, cell mortality was measured by Trypan blue exclusion assay, performed as follows. Cells were suspended by pipetting gently, and 50 μl of 0.4% (finally 0.08%) Trypan blue solution (Sigma, St Louis, Mo.) was mixed with 200 μl of the cell suspension at room temperature. Stained cells were counted within 3 min after the mixture with Trypan blue solution.

In series [2] the test system is Aβ and V642I-APP. The conditions noted are these: Table 5, marked **.
Description: as §2
(§3) The primary culture of mouse cortical neurons was performed in poly-L-lysine-coated 24-well plates or 96-well plates (Sumitomo Bakelite, Akita, Japan), in the absence of serum and the presence of N2 supplement, as described previously. The purity of neurons by this method was >98%. Prepared neurons (for neurons seeded in 96-well plates: 2.5×10^4 or 5×10^4 cells/well, 100 μl culture medium/well; for neurons seeded in 24-well plates: 1.25×10^5 cells/well, 250 μl culture medium/well) were preincubated with or without 10 μM (in case for the experiment with 10 μM HN) synthetic HN for 16 hr, and treated with 25 μM Aβ in the presence or absence of 10 μM HN for 72 hr, respectively. As primary neurons were vulnerable to transient dryness during medium exchange, we treated neurons with 25 μM Aβ as follows. First, a half volume (50 μl for neurons in 96-well plates; 125 μl for neurons in 24-well plates) of old medium was discarded. Then, the same volume (50 μl for neurons in 96-well plates; 125 μl for neurons in 24-well plates) of prewarned fresh medium containing 10 μM HN and 50 μM Aβ (Aβ was directly resolved) was added to the culture. The Aβ peptides used at 25 μM to induce neurotoxicity formed aggregation in the medium during the cell culture at 37° C. for 72 hr. as described. The WST-8 cell viability assay was performed, using Cell Counting Kit-8 (Wako Pure Chemical Industries, Osaka, Japan), as described previously.
(§4) Calcein assay was performed with Calcein-AM {3′,6′-di-(O-acetyl)-2′,7′-bis [N,N-bis(carboxymethyl)aminomethyl] fluorescein, tetraacetoxymethyl ester; Dojindo}, as described previously. These assays were simultaneously performed in the experiments with neurons seeded in 96-well plates, as follows. Seventy-two hours after Aβ treatment, cells were added with the mixture of 10 μl WST-8 solution and 1 μl of 600 μM Calcein-AM. After 2 hr incubation in a CO2 incubator at 37° C., WST-8 absorbance was measured as OD450. After exchanging the medium to PBS to lower the background, Calcein-specific fluorescence (ex=485 nm, em=535 nm) was observed by fluorescence microscopy or measured by a spectrofluorometer (Wallac1420 ARVOsx Multi Label Counter). […]

Series [3] relates to primary cultured neurons treated with 25 μM Aβ1-43. The conditions noted are these: for Calcein fluorescence, percentage of neurons without treatment: 72 hours, means±S.D. The protocol: as §1, §3
Calcein assay was performed with Calcein-AM {3′,6′-di-(O-acetyl)-2′,7′-bis [N,N-bis(carboxymethyl)aminomethyl] fluorescein, tetraacetoxymethyl ester; Dojindo}, as described previously. These assays were simultaneously performed in the experiments with neurons seeded in 96-well plates, as follows. Seventy-two hours after Aβ treatment, cells were added with the mixture of 10 μl WST-8 solution and 1 μl of 600 μM Calcein-AM. After 2 hr incubation in a CO2 incubator at 37° C., WST-8 absorbance was measured as OD450. After exchanging the medium to PBS to lower the background, Calcein-specific fluorescence (ex=485 nm, em=535 nm) was observed by fluorescence microscopy or measured by a spectrofluorometer (Wallac1420 ARVOsx Multi Label Counter). Most cell viability data using Calcein assay and WST-8 assay were obtained from neurons seeded at 5×10^4 cells/well in 96-well plates (high-density neurons) and confirmed by both assays with the cells seeded at 2.5×10^4 cells/well (low-density neurons).
Some experiments for Calcein assay were performed with neurons seeded in 24-well plates. […] In most experiments using primary neurons, four independent experiments were performed and the means? S. D. of the results were discussed.

Series [4] relates to Aβ and four FAD genes (V642I-APP, NL-APP, M146L-PS1, and N141I-PS2). The conditions noted are these: Table 5, marked *.
Description: as §2, §3, §4

The mark [5] stands for this setting: 25 μM Aβ1-43 + 10 pM peptide, Aβ alone 8.9 ± 0.8.
The mark [6] stands for this setting: V642I-APP + 10 pM peptide, means±S.D., V642I-APP alone 52.9 ± 1.1.

With MAPRGFSCLLLLTWEIDLPVKRRA [(S14W)HN], the “cytotoxicity by V642I-APP in the presence of peptide (% dead cells of total cells)” value (“cytotoxicity … (% dead cells of total cells)” below) in series [1] is reported as 54.5±4.2%.
On the same count and under the same terms, the value for MAPRGFSCLLLLTREIDLPVKRRA [(S14R)HN] was 52.6±1.0%.
For the compound “MAPRGFSCLLLLT(p-S)EIDLPVKRRA (MAPRGFSCLLLLT[pS]EIDLPVKRRA) [P-S14 HN, p-S is phosphorylated L-Ser]”, the “Full protection (minimal concentration that exerted full cytoprotection)” value in series [2] is on record as “˜10 μM”. Moreover, the “Calcein fluorescence, percentage of neurons without treatment” value was 8.6 ± 0.3% in series [3] (setting [5]); 8.6 ± 0.4% in series [3] (25 μM Aβ1-43 + 100 pM peptide); 8.9 ± 0.1% in series [3] (25 μM Aβ1-43 + 1 nM peptide); 8.6 ± 0.3% in series [3] (25 μM Aβ1-43 + 10 nM peptide); 8.6 ± 0.1% in series [3] (25 μM Aβ1-43 + 100 nM peptide); 85.8 ± 4.1 % in series [3] (25 μM Aβ1-43 + 1 μM peptide). Further, the “Calcein fluorescence, percentage of neurons without treatment” value in series [3] (25 μM Aβ1-43 + 10 μM peptide) is listed as 104.1 ± 1.7 %. Also, the “% dead cells of total cells” value in series [1] (setting [6]) is 56.5 ± 4.1%; in series [1] (V642I-APP + 100 pM peptide) it was 56.3 ± 2.7%; in series [1] (V642I-APP + 1 nM peptide) it was 54.3 ± 1.2%; in series [1] (V642I-APP + 10 nM peptide), 53.4 ± 2.0%; in series [1] (V642I-APP + 100 nM peptide), 41.8 ± 1.8 %.
In the case of MAPRGFSCLLLLTEEIDLPVKRRA [(S14E)HN], in series [1], the “cytotoxicity … (% dead cells of total cells)” value is 45.0±1.9%.
The same measure, in the same setting: the value for `CC[C@H](C)[C@H](NC(=O)[C@H](CCC(=O)O)NC(=O)[C@H](CO)NC(=O)[C@@H](NC(=O)[C@H](CC(C)C)NC(=O)[C@H](CC(C)C)NC(=O)[C@H](CC(C)C)NC(=O)[C@H](CC(C)C)NC(=O)[C@H](CS)NC(=O)[C@H](CO)NC(=O)[C@H](Cc1ccccc1)NC(=O)CNC(=O)[C@H](CCCNC(=N)N)NC(=O)[C@@H]1CCCN1C(=O)[C@H](C)NC(=O)[C@@H](N)CCSC)[C@@H](C)O)C(=O)N[C@@H](CC(=O)O)C(=O)N[C@@H](CC(C)C)C(=O)N1CCC[C@H]1C(=O)N[C@H](C(=O)N[C@@H](CCCCN)C(=O)N[C@@H](CCCNC(=N)N)C(=O)N[C@@H](CCCNC(=N)N)C(=O)N[C@@H](C)C(=O)O)C(C)C` [HN, reference compound] was 11.0±0.1%.
Regarding “MAPRGFSALLLLTSEIDLPVKRRA [HNA, reference compound]”, the Full protection result in series [4] is given as “NE* (the corresponding peptide had no cytoprotective effect at 10 μM)”. For the same compound, the half-inhibitory concentration (IC50) in series [4] (read-out: IC50) is greater than 10 µM. Besides, in series [3] (25 μM Aβ1-43, primary neurons), the “neuroprotective action against Aβ1-43 (in words)” value is “completely inactive”. In addition, in series [1] (F11 cells), the “cytoprotective action against V642I-APP (in words)” value was “completely inactive”.
For MAPRGFSCLLLLTTEIDLPVKRRA [(S14T)HN], in series [1], the “cytotoxicity … (% dead cells of total cells)” value was 54.0±2.3%.
On to “MAPRGF(p-S)CLLLLTSEIDLPVKRRA (MAPRGF[pS]CLLLLTSEIDLPVKRRA) [P-S7 HN]”, for which the “Full protection (minimal concentration that exerted full cytoprotection)” value in series [4] is “˜10 μM”. Further, the “Calcein fluorescence, percentage of neurons without treatment” value in series [3] (setting [5]) is 9.0 ± 0.9%; in series [3] (25 μM Aβ1-43 + 100 pM peptide) it was 8.7 ± 0.8%; in series [3] (25 μM Aβ1-43 + 1 nM peptide), 8.8 ± 0.9%; in series [3] (25 μM Aβ1-43 + 10 nM peptide) it was 8.8 ± 0.6%; in series [3] (25 μM Aβ1-43 + 100 nM peptide), 10.5 ± 0.9%; in series [3] (25 μM Aβ1-43 + 1 μM peptide) it was 84.2 ± 6.8 %. Further, in series [3] (25 μM Aβ1-43 + 10 μM peptide), the “Calcein fluorescence, percentage of neurons without treatment” value is on record as 103.3 ± 2.8 %. The “% dead cells of total cells” value stood at 53.7 ± 0.8% in series [1] (setting [6]); 53.1 ± 1.7% in series [1] (V642I-APP + 100 pM peptide); 54.8 ± 1.6% in series [1] (V642I-APP + 1 nM peptide); 54.1 ± 1.4% in series [1] (V642I-APP + 10 nM peptide); 11.6 ± 1.1 % in series [1] (V642I-APP + 10 μM peptide).
Take “PRGFACLLLLTGEIDLP [S7A HNG17, PRGFACLLLLTGEIDLP]”: in series [2], the “Full protection (minimal concentration that exerted full cytoprotection)” value is given as “˜10 nM”. In series [3], this compound returned an IC50 of roughly 0.001 µM. Also, in series [3] (25 μM Aβ1-43), the “concentration of full neuroprotection against Aβ1-43” value is reported as “about 10 nM”.
For the compound “MAPRGF(p-S)CLLLLT(p-S)EIDLPVKRRA (MAPRGF[pS]CLLLLT[pS]EIDLPVKRRA) [P-S7/14 HN]”, the “Full protection (minimal concentration that exerted full cytoprotection)” value in series [2] is on record as “˜10 μM”. Further, the “Calcein fluorescence, percentage of neurons without treatment” value in series [3] (setting [5]) was 9.3 ± 0.4%; in series [3] (25 μM Aβ1-43 + 100 pM peptide), 8.8 ± 0.3%; in series [3] (25 μM Aβ1-43 + 1 nM peptide), 8.8 ± 0.2%; in series [3] (25 μM Aβ1-43 + 10 nM peptide), 8.7 ± 0.3%; in series [3] (25 μM Aβ1-43 + 100 nM peptide), 8.6 ± 0.2%; in series [3] (25 μM Aβ1-43 + 1 μM peptide), 84.0 ± 5.8 %. The “Calcein fluorescence, percentage of neurons without treatment” value in series [3] (25 μM Aβ1-43 + 10 μM peptide) is on record as 103.3 ± 0.8 %. Further, the “% dead cells of total cells” value amounted to 54.8 ± 0.5% in series [1] (setting [6]); 54.1 ± 1.5% in series [1] (V642I-APP + 100 pM peptide); 52.9 ± 1.6% in series [1] (V642I-APP + 1 nM peptide); 53.8 ± 3.1% in series [1] (V642I-APP + 10 nM peptide); 38.2 ± 1.9 % in series [1] (V642I-APP + 100 nM peptide); 22.7 ± 5.2 % in series [1] (V642I-APP + 1 μM peptide). Also, the “% dead cells of total cells” value in series [1] (V642I-APP + 10 μM peptide) was determined as 11.8 ± 1.2 %.
Turning to “(S14P)HN: HN derivative with Pro substitution at Ser14”, in series [1], the “cytotoxicity … (% dead cells of total cells)” value worked out at 12.5±1.0%.
For “MAPRGF(D-Ser)CLLLLTSEIDLPVKRRA [D-Ser7 HN]”, in series [4], the “Full protection (minimal concentration that exerted full cytoprotection)” value was “˜10 μM”.
With “EFLIVIKSMAPRGFSALLLLTSEIDLPVKRRA [EF-HNA]”, in series [2], the Full protection result is “NE** (the corresponding peptide had no cytoprotective effect at 10 μM)” and the IC50 was greater than 10 µM.

The IC50 is the concentration that inhibits the measured activity by half.
